In US20180339016A1 (priority 2015, published 2018):
Where two headings read alike, the source gives them in different places.

Tests used:
[1] = system: Escherichia coli (ATCC 25922); details: peptide alone; peptide concentration required to inhibit growth by 20% (so in the source)
Procedure: (§1) The N-terminus of the peptides were acetylated and the C-terminus was amidated. The kinked structure can rapidly reduce the alpha-helical content, thereby greatly reducing the toxicity of the peptide against host cells. In addition, because of the potential to show specificity for the Gram-negative bacterial membrane, Pro-mutants were prepared by site-directed mutagenesis. Using the prepared peptides, their MIC for the Gram-negative bacterium E. coli and the Gram-positive bacterium S. aureus and their hemolytic activity for host cells were examined (Table 1).
(§2) To measure the synergy between the membrane-activating peptides and the repositioning drug, a 10× compound was prepared, and then serially diluted ⅔-fold with distilled water. An MH broth (900 μl) was added to and mixed with the 10× compound (100 μl), and then 200 μL of the mixture was taken and added to a 96-well plate. E. coli cultured for one day was adjusted to 0.5 MCF using MCFarland, and diluted 10-fold, and then 10 μl of the dilution was added to each well of the plate (5×10^5 CFU/mL). After addition of the bacterial cells, plate was incubated at 37° C. for 18 hours, and then the OD value at UV-Vis (600 nm) was measured. Cell viability (%)=(OD600 of sample−OD600 of negative control)/(OD600 of positive control−OD600 of negative control)×100.

[2] = system: Staphylococcus aureus (ATCC 29213); experiment: MIC of peptide against S. aureus; format: cell-based; details: peptide alone
Procedure: as §1

[3] = system: E. coli ATCC 25922
[4] = system: E. coli ATCC 25922; experiment: Antibiotic interaction assay (Wimley), 2/3 broth microdilution: MIC alone, MIC of combination, FICI; format: cell-based; details: for MIC of combination (μM): antibiotic (colistin): colistin concentration in combination with labelled peptide; for MIC of peptide: peptide alone
Procedure: Synergy was evaluated by an antibiotic interaction assay (Wimley, 2015) Using the method of Wimley (BBA, 2015, v. 1848(1), pp. 8-15), synergy between the membrane-activating peptide and an antibiotic was measured by an FICI value (FIG. 17). […] Thus, to accurately examine synergy, a ⅔ dilution method which observes MIC at denser concentration intervals is advantageous over a ½ dilution method in statistical terms. […] In the same manner, the MIC of an antibiotic or repositioning drug (second line) is measured. In the third line, the two compounds are mixed after putting half amount each, and the MIC thereof is measured.
A broth microdilution technique (⅔ dilution) was used together with an MH broth. E. coli treated with an antibiotic and the peptide was incubated in a 37° C. incubator for 18 hours.
as §2

[5] = labelled peptide + colistin + linezolid
[6] = peptide concentration in combination with colistin
[7] = three compounds: labelled peptide + colistin + linezolid
[8] = Table 13, Lys-Ala scanning library

LKKLLKLLKKLLKL
MIC [μM] Against E. coli [1]: 20 µM | MIC [μM] Against S. aureus [2]: 20 µM

KLLKLLKKPLKLAK [KL-L9PL13A]
increase of FICI value with colistin when peptide changed from 1/4 MIC to 1/2 MIC [3]: 0.29 | FICI Against E. coli, Colistin & 1/2 MIC peptide ([3]; Table 15, Leu-Ala scanning): 0.80 | FICI Against E. coli, Colistin & 1/4 MIC peptide ([3]; Table 15, Leu-Ala scanning): 0.51 | MIC [μM] Against E. coli [1]: 40 µM

KLLKLLKKLLKLLK
MIC [μM] Against E. coli [1]: 20 µM | MIC [μM] Against S. aureus [2]: 20 µM

KLLKLLKKLPKLLK [KL-L10P]
MIC [μM] Against E. coli [1]: 2.5 µM | MIC [μM] Against S. aureus [2]: 20 µM

KLLKLLKCLLKCLK [8, 12 kink]
MIC [μM] Against E. coli [1]: 1.1 µM | MIC of combination (μM): antibiotic (colistin) [4]: 0.065 µM | FICI of peptide with colistin ([4]; labelled peptide + colistin): 0.86 | FICIPeptide ([4]; labelled peptide + colistin): 0.56 | FICIcolistin / FICIantibiotic ([4]; labelled peptide + colistin): 0.30 | FICI of peptide with colistin and linezolid [4, 5]: 1.1 | FICIPeptide [4, 5]: 0.42 | FICIcolistin [4, 5]: 0.29 | FICIlinezolid [4, 5]: 0.37 | MIC of peptide [4]: 1.1 µM | MIC of combination (μM): peptide [4, 6]: 0.59 µM | MIC of combination (μM): colistin [4, 7]: 0.065 µM | MIC of combination (μM): linezolid [4, 7]: 22 µM | MIC of combination (μM): peptide [4, 7]: 0.44 µM

KLLKLLKKDLKLLK [KL L9D]
MIC [μM] Against E. coli [1]: 20 µM | MIC of combination (μM): antibiotic (colistin) [4]: 0.09 µM | FICI of peptide with colistin ([4]; labelled peptide + colistin): 0.46 | FICIPeptide ([4]; labelled peptide + colistin): 0.28 | FICIcolistin / FICIantibiotic ([4]; labelled peptide + colistin): 0.18 | FICI of peptide with simvastatin ([4]; labelled peptide + simvastatin): 0.61 | FICIPeptide ([4]; labelled peptide + simvastatin): 0.5 | FICIsimvastatin ([4]; labelled peptide + simvastatin): 0.11 | MIC of peptide [4]: 18 µM | MIC of combination (μM): peptide [4, 6]: 5 µM | MIC of combination (μM): peptide ([4]; peptide concentration in combination with simvastatin): 9 µM | MIC of combination (μM): simvastatin ([4]; simvastatin concentration in combination with labelled peptide): 83.33 µM

KLLKLLKKLLKPLK [KL-L12P]
MIC [μM] Against E. coli [1]: 2.5 µM | MIC [μM] Against S. aureus [2]: 20 µM

LKKPLKLLKKPLKL [LK-L4PL11P]
MIC [μM] Against E. coli [1]: >40 µM | MIC [μM] Against S. aureus [2]: >40 µM

LKKLPKLPKKLLKL [LK-L5PL8P]
MIC [μM] Against E. coli [1]: 20 µM | MIC [μM] Against S. aureus [2]: >40 µM

KLLKLLKPLLKLLK [KL-K8P]
MIC [μM] Against E. coli [1]: 2.5 µM | MIC [μM] Against S. aureus [2]: 5.0 µM

LKKLLPLLKKLLKL [LK-K6P]
MIC [μM] Against E. coli [1]: 2.5 µM | MIC [μM] Against S. aureus [2]: 5.0 µM

KALKLLKKPLKLLK [KL-L2AL9P]
FICI Against E. coli, Colistin & 1/2 MIC peptide ([3]; Table 15, Leu-Ala scanning): 0.74 | FICI Against E. coli, Colistin & 1/4 MIC peptide ([3]; Table 15, Leu-Ala scanning): 0.61 | MIC [μM] Against E. coli [1]: 40 µM

KLLKLLCKLCKLLK [7, 10 kink]
MIC [μM] Against E. coli [1]: 1.1 µM | MIC of combination (μM): antibiotic (colistin) [4]: 0.081 µM | FICI of peptide with colistin ([4]; labelled peptide + colistin): 0.89 | FICIPeptide ([4]; labelled peptide + colistin): 0.58 | FICIcolistin / FICIantibiotic ([4]; labelled peptide + colistin): 0.31 | FICI of peptide with colistin and linezolid [4, 5]: 1.1 | FICIPeptide [4, 5]: 0.37 | FICIcolistin [4, 5]: 0.33 | FICIlinezolid [4, 5]: 0.37 | MIC of peptide [4]: 1.1 µM | MIC of combination (μM): peptide [4, 6]: 0.63 µM | MIC of combination (μM): colistin [4, 7]: 0.081 µM | MIC of combination (μM): linezolid [4, 7]: 22 µM | MIC of combination (μM): peptide [4, 7]: 0.44 µM

KLLKLLKKPAKLLK [KL-L9PL10A]
increase of FICI value with colistin when peptide changed from 1/4 MIC to 1/2 MIC [3]: 0.31 | FICI Against E. coli, Colistin & 1/2 MIC peptide ([3]; Table 15, Leu-Ala scanning): 0.80 | FICI Against E. coli, Colistin & 1/4 MIC peptide ([3]; Table 15, Leu-Ala scanning): 0.49 | MIC [μM] Against E. coli [1]: 40 µM

LKKLLKLLKPLLKL [LK-K10P]
MIC [μM] Against E. coli [1]: 5.0 µM | MIC [μM] Against S. aureus [2]: 5.0 µM

KLPKLLKKLLKLLK [KL-L3P]
MIC [μM] Against E. coli [1]: 10 µM | MIC [μM] Against S. aureus [2]: 20 µM

KLR8KLLKKPLS5LLK [st 3, 11]
MIC [μM] Against E. coli [1]: 2.5 µM | MIC of combination (μM): antibiotic (colistin) [4]: 0.12 µM | FICI of peptide with colistin ([4]; labelled peptide + colistin): 0.86 | FICIPeptide ([4]; labelled peptide + colistin): 0.59 | FICIcolistin / FICIantibiotic ([4]; labelled peptide + colistin): 0.27 | FICI of peptide with colistin and linezolid [4, 5]: 0.70 | FICIPeptide [4, 5]: 0.11 | FICIcolistin [4, 5]: 0.25 | FICIlinezolid [4, 5]: 0.33 | MIC of peptide [4]: 2.5 µM | MIC of combination (μM): peptide [4, 6]: 0.61 µM | MIC of combination (μM): colistin [4, 7]: 0.060 µM | MIC of combination (μM): linezolid [4, 7]: 15 µM | MIC of combination (μM): peptide [4, 7]: 0.30 µM

LKKPLKLLKKLLKL [LK-L4P]
MIC [μM] Against E. coli [1]: 5 µM | MIC [μM] Against S. aureus [2]: 40 µM

LKKLPKLLKKLLKL [LK-L5P]
MIC [μM] Against E. coli [1]: 5.0 µM | MIC [μM] Against S. aureus [2]: 20 µM

LKKLLKPLKKPLKL [LK-L7PL11P]
MIC [μM] Against E. coli [1]: 20 µM | MIC [μM] Against S. aureus [2]: >40 µM

ALLKLLKKPLKLLK [KL-L9P/K1A]
FICI Against E. coli, Colistin & 1/2 MIC peptide [3, 8]: 0.71

KLAKLLKKPLKLLK [KL-L3AL9P]
FICI Against E. coli, Colistin & 1/2 MIC peptide ([3]; Table 15, Leu-Ala scanning): 0.70 | FICI Against E. coli, Colistin & 1/4 MIC peptide ([3]; Table 15, Leu-Ala scanning): 0.55 | MIC [μM] Against E. coli [1]: 27 µM

KLLKLLKKPLKLLA [KL-L9P/K14A]
FICI Against E. coli, Colistin & 1/2 MIC peptide [3, 8]: 0.66

KLLKLLKKLLKLPK [KL-L13P]
MIC [μM] Against E. coli [1]: 5 µM | MIC [μM] Against S. aureus [2]: 10 µM

KPLKLLKKLLKLLK [KL-L2P]
MIC [μM] Against E. coli [1]: 5 µM | MIC [μM] Against S. aureus [2]: 20 µM

KLLKLLKKPLKALK [KL-L9PL12A]
FICI Against E. coli, Colistin & 1/2 MIC peptide ([3]; Table 15, Leu-Ala scanning): 0.74 | FICI Against E. coli, Colistin & 1/4 MIC peptide ([3]; Table 15, Leu-Ala scanning): 0.61 | MIC [μM] Against E. coli [1]: 40 µM

KLLKPLKKLLKLLK [KL-L5P]
MIC [μM] Against E. coli [1]: 5.0 µM | MIC [μM] Against S. aureus [2]: 20 µM

LKKLLKLLPKLLKL [LK-K9P]
MIC [μM] Against E. coli [1]: 5.0 µM | MIC [μM] Against S. aureus [2]: 5.0 µM

KLLALLKKPLKLLK [KL-L9P/K4A]
FICI Against E. coli, Colistin & 1/2 MIC peptide [3, 8]: 0.79

KLLKLLKAPLKLLK [KL-L9P/K8A]
FICI Against E. coli, Colistin & 1/2 MIC peptide [3, 8]: 0.97

LKKLLKPLKKLLKL [LK-L7P]
MIC [μM] Against E. coli [1]: 2.5 µM | MIC [μM] Against S. aureus [2]: 20 µM

KLLKLLKKPLALLK [KL-L9P/K11A]
FICI Against E. coli, Colistin & 1/2 MIC peptide [3, 8]: 1.25

LKKLPKLLKKPLKL [LK-L5PL11P]
MIC [μM] Against E. coli [1]: 40 µM | MIC [μM] Against S. aureus [2]: >40 µM

KLLKLLPKLLKLLK [KL-K7P]
MIC [μM] Against E. coli [1]: 2.5 µM | MIC [μM] Against S. aureus [2]: 5.0 µM

LKKPPKLLKKLLKL [LK-L4PL5P]
MIC [μM] Against E. coli [1]: 5 µM | MIC [μM] Against S. aureus [2]: >40 µM

LKKPLKLPKKLLKL [LK-L4PL8P]
MIC [μM] Against E. coli [1]: 40 µM | MIC [μM] Against S. aureus [2]: >40 µM

LKKLLKLLKKPPKL [LK-L11PL12P]
MIC [μM] Against E. coli [1]: 2.5 µM | MIC [μM] Against S. aureus [2]: >40 µM

KLLKLLAKPLKLLK [KL-L9P/K7A]
FICI Against E. coli, Colistin & 1/2 MIC peptide [3, 8]: 0.86

LKKLLKLPKKPLKL [LK-L8PL11P]
MIC [μM] Against E. coli [1]: 40 µM | MIC [μM] Against S. aureus [2]: >40 µM

Ac-KLLKALKKPLKLLK-NH2 [KL-L5AL9P]
increase of FICI value with colistin when peptide changed from 1/4 MIC to 1/2 MIC [3]: 0.37 | FICI Against E. coli, Colistin & 1/2 MIC peptide ([3]; Table 15, Leu-Ala scanning): 0.86 | FICI Against E. coli, Colistin & 1/4 MIC peptide ([3]; Table 15, Leu-Ala scanning): 0.49 | MIC [μM] Against E. coli [1]: 18 µM
